Measurements taken from BindingDB's records for patent US9556181 (Bayer Pharma Aktiengesellschaft, 2017).
pIC50: −log10 of the molar value.

Biological target: T1, MAP kinase-interacting serine/threonine-protein kinase 1 [T344D] (Homo sapiens, UniProt Q9BUB5, T344D)
T1 construct: gene MKNK1
Assay: MKNK1 Kinase High ATP Assay
Conditions: pH 7.5
Description: TBDA recombinant fusion protein of Glutathione-S-Transferase (GST, N-terminally) and human full-length MKNK1 (amino acids 1-424 and T344D of accession number BAA 19885.1), expressed in insect cells using baculovirus expression system and purified via glutathione sepharose affinity chromatography, was purchased from Carna Biosciences (product no 02-145) and used as enzyme. As substrate for the kinase reaction the biotinylated peptide biotin-Ahx-IKKRKLTRRKSLKG (C-terminus in amide form) was used, which can be purchased e.g. from the company Biosyntan (Berlin-Buch, Germany).For the assay 50 nL of a 100 fold concentrated solution of the test compound in DMSO was pipetted into a black low volume 384 well microtiter plate (Greiner Bio-One, Frickenhausen, Germany), 2 μL of a solution of MKNK1 in aqueous assay buffer [50 mM HEPES pH 7.5, 5 mM MgCl2, 1.0 mM dithiothreitol, 0.005% (v/v) Nonidet-P40 (Sigma)] was added and the mixture was incubated for 15 min at 22° C. to allow pre-binding of the test compounds to the enzyme before the start of the kinase reaction. Then the kinase reaction was started by the addition of 3 μL of a solution of adenosine-tri-phosphate (ATP, 3.3 mM=>final conc. in the 5 μL assay volume is 2 mM) and substrate (0.1 μM=>final conc. in the 5 μL assay volume is 0.06 μM) in assay buffer and the resulting mixture was incubated for a reaction time of 30 min at 22° C. […]

T1 sequence (Q9BUB5 whole entry, looked up, stated change not applied): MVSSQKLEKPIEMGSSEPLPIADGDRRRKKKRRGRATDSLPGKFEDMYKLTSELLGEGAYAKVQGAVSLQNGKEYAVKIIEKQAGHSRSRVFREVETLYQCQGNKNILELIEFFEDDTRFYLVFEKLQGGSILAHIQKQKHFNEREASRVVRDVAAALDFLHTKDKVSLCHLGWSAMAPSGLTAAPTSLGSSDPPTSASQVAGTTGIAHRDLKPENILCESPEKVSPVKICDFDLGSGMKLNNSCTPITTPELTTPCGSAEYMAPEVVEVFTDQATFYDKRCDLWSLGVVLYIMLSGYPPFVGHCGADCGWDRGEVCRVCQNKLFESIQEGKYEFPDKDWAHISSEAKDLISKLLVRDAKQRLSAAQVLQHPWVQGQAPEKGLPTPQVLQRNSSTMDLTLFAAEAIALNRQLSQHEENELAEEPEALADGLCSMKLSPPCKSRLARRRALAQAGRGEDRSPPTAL

COc1cc2[nH]ncc2cc1Nc1ncnc2[nH]ncc12 [US9556181, 2]
pIC50: 7.31
